Experimental data: patent US20100144854A1 (priority 2007, published 2010)

Assays:
[1] = system: Malignant glioblastoma of the left brain; assay: Example 4: patient with recurrent brain glioblastoma treated with rhodamine 6G intravenously; assay type: in vivo, human
Description: Patient G. Diagnosis: Malignant glioblastoma of the left brain. Recurrence of cancer. Two years previously a tumor had been removed in connection with a brain glioblastoma. The patient complained of headaches, nausea and vomiting. […] Patient's condition moderately severe; pale skin. […] The procedure took 40 minutes. Subsequent procedures were carried out in exactly the same sequence twice a week. The course of treatment lasted 3 months. During the treatment the tumor reduced in size to 0.3×0.4 cm. After two infusions of the preparation the symptoms of nausea and pain had decreased. The preparation was administered over 6 months as a single dose once every 2 weeks.

[2] = system: adenocarcinoma of the right ovary; assay: Example 3: patient with ovarian adenocarcinoma treated with rhodamine 6G; assay type: in vivo, human; conditions: Patient T, 54
Description: Patient T. Diagnosis: adenocarcinoma of the right ovary. Metastases in the liver. A hysterectomy had been carried out 4 years before. There was a recurrence of the cancer after a year. The patient complained of pain in the pelvis and difficulty in urination. […] The patient's condition was moderately severe; pale skin. […] The course of treatment lasted 3 months. During the treatment the tumor decreased in size to 1.2×0.9×0.3 cm. […] Blood analyses against the treatment background became normal over 2 months. A full course of treatment with the preparation was carried out over 6 months. During the course of the treatment the tumor in the region of the bladder and rectum disappeared.

[3] = system: adenocarcinoma of the large intestine; assay: Example 6: patient with large intestine adenocarcinoma and liver metastases treated with rhodamine 6G; assay type: in vivo, human; parameters: Nuclear segments / Lymphocytes (line r11) / Erythrocytes / Hemoglobin / Thrombocytes / Leukocytes / Amylase / Chlorine / Serum iron / Cholesterol / Total bilirubin / Bilirubin (line r8, above 'direct'): unit not given here; conditions: for Erythrocytes / Hemoglobin / Leukocytes / Thrombocytes / Eosinophils / Cholesterol / Monocytes / Total bilirubin / Potassium / ALT / AST / Bilirubin (line r8, above 'direct') / Serum iron / Lymphocytes (line r11) / Nuclear segments / Total protein / Creatinine / Amylase / Chlorine / Indirect bilirubin fraction / direct (line r9) / indirect (line r11) / Basophils / Nuclear rods: Example 6, Patient N; for Eosinophils: normal 0-5; for Cholesterol: normal 1.66-8.3; for Monocytes: normal 2-9%; for Total bilirubin: normal 2.90-6.54; for Potassium: normal 3.5-6.0; for ALT / AST: normal 5-40; for Bilirubin (line r8, above 'direct'): normal 8.5-20.5; for Serum iron: normal 8.8-27.0; for Lymphocytes (line r11): normal 18-; for Nuclear segments: normal 45-70; for Total protein: normal 65.0-80; for Creatinine: normal 85.0; for Amylase: normal 95-110.0; for Chlorine: normal 135.0-; for Indirect bilirubin fraction / direct (line r9): normal to 25%; for indirect (line r11): normal to 100; for Basophils: normal 0-1%; for Nuclear rods: normal 1-6%
Description: Patient N. Diagnosis: adenocarcinoma of the large intestine. Metastases in the liver. Ascites. Three years previously a resection of the large intestine was performed with insertion of an anastomosis end to end. A full course of polychemo-therapy was given. Two years after the treatment the patient complained of pain in the bottom of the abdomen and tenesmus. The patient presented complaining of acute weakness, constant pain in the abdomen, coughing, dyspnea, ascites, retention of stools. Patient's condition serious, loss of appetite, pale cyanosed skin, abdomen with signs of ascites. […] A lump of irregular shape 2×4 cm in size with irregular edges was detected by computerized tomography in the right renal lobe. A large lump 4×5.4 cm in size and free liquid in the peritoneal cavity were also detected. […] The infusions were administered weekly over the course of 3 months. […] The enemas were administered three times a week over the course of 2 months. […] In the third week of treatment the dyspnea was less severe. In the course of treatment the tumor in the region of the anastomosis decreased in size to 0.2×0.3 cm. After 3 months the treatment was discontinued for 1 month, and was then resumed for a further 2 months.

[4] = Tolerability on use in a wide range of dosages; assay type: in vivo; conditions: used in a wide range of dosages
[5] = Patient N, over the course of the treatment (3 months, 1 month pause, 2 months)

9-(2-ethoxycarbonyl)phenyl)-3,6-bis(ethylamino)2,7-dimethylxanthyl chloride [rhodamine 6G]
tumor on CT scan ([1]; after 9 months' treatment): no tumor could be detected | symptoms of nausea and pain ([1]; after two infusions): decreased | body weight ([2]; after treatment): regained weight | tumor in the region of the bladder and rectum ([2]; full course over 6 months): disappeared | blood analyses against the treatment background ([2]; over 2 months): became normal | stools and feeling of pain ([2]; second week after start): the stools became normal and the feeling of pain disappeared | Erythrocytes ([3]; 09 Dec. 2004): 4.44 | Hemoglobin ([3]; 09 Dec. 2004): 115 | Leukocytes ([3]; 09 Dec. 2004): 5.2 | Thrombocytes ([3]; 09 Dec. 2004): 326 | Eosinophils ([3]; 09 Dec. 2004): 2 | Cholesterol ([3]; 09 Dec. 2004): 5.75 | Monocytes ([3]; 09 Dec. 2004): 10% | Total bilirubin ([3]; 09 Dec. 2004): 8.4 | Potassium ([3]; 09 Dec. 2004): 2.28 | ALT ([3]; 09 Dec. 2004): 69.2 el | AST ([3]; 09 Dec. 2004): 45.7 el | Bilirubin (line r8, above 'direct') ([3]; 09 Dec. 2004): 3.3 | Serum iron ([3]; 09 Dec. 2004): 54.8 | Lymphocytes (line r11) ([3]; 09 Dec. 2004): 58 | Nuclear segments ([3]; 09 Dec. 2004): 6 | Total protein ([3]; 09 Dec. 2004): 65 g/L | Creatinine ([3]; 09 Dec. 2004): 74 µM | Amylase ([3]; 09 Dec. 2004): 102.8 | Chlorine ([3]; 09 Dec. 2004): 114.31 | Indirect bilirubin fraction ([3]; 09 Dec. 2004): 84% | direct (line r9) ([3]; 09 Dec. 2004): 5.1% | indirect (line r11) ([3]; 09 Dec. 2004): 89 el | Erythrocytes ([3]; 09 Jan. 2005): 4.87 | Hemoglobin ([3]; 09 Jan. 2005): 128 | Leukocytes ([3]; 09 Jan. 2005): 5.3 | Thrombocytes ([3]; 09 Jan. 2005): 440 | Basophils ([3]; 09 Jan. 2005): 1% | Eosinophils ([3]; 09 Jan. 2005): 1 | Nuclear rods ([3]; 09 Jan. 2005): 2% | Cholesterol ([3]; 09 Jan. 2005): 7.03 | Monocytes ([3]; 09 Jan. 2005): 12% | Total bilirubin ([3]; 09 Jan. 2005): 8.0 | Potassium ([3]; 09 Jan. 2005): 2.15 | ALT ([3]; 09 Jan. 2005): 79 el | AST ([3]; 09 Jan. 2005): 29.5 el | Bilirubin (line r8, above 'direct') ([3]; 09 Jan. 2005): 2.0 | Serum iron ([3]; 09 Jan. 2005): 42.9 | Lymphocytes (line r11) ([3]; 09 Jan. 2005): 69 | Nuclear segments ([3]; 09 Jan. 2005): 5 | Total protein ([3]; 09 Jan. 2005): 82.53 g/L | Creatinine ([3]; 09 Jan. 2005): 69 µM | Amylase ([3]; 09 Jan. 2005): 110.0 | Chlorine ([3]; 09 Jan. 2005): 134.2 | Indirect bilirubin fraction ([3]; 09 Jan. 2005): 90% | direct (line r9) ([3]; 09 Jan. 2005): 6.0% | indirect (line r11) ([3]; 09 Jan. 2005): 78.0 el | Erythrocytes ([3]; 9 Oct. 2004): 3.20 | Hemoglobin ([3]; 9 Oct. 2004): 74 | Leukocytes ([3]; 9 Oct. 2004): 9.2 | Thrombocytes ([3]; 9 Oct. 2004): 120 | Basophils ([3]; 9 Oct. 2004): 1% | Eosinophils ([3]; 9 Oct. 2004): 1 | Nuclear rods ([3]; 9 Oct. 2004): 0% | Cholesterol ([3]; 09 Oct. 2004): 6.21 | Monocytes ([3]; 9 Oct. 2004): 36% | Total bilirubin ([3]; 09 Oct. 2004): 11.0 | Potassium ([3]; 09 Oct. 2004): 2.72 | ALT ([3]; 09 Oct. 2004): 465.8 el | AST ([3]; 09 Oct. 2004): 265.7 el | Bilirubin (line r8, above 'direct') ([3]; 09 Oct. 2004): 3.0 | Serum iron ([3]; 09 Oct. 2004): 190.4 | Lymphocytes (line r11) ([3]; 9 Oct. 2004): 35 | Nuclear segments ([3]; 9 Oct. 2004): 2 | Total protein ([3]; 09 Oct. 2004): 51.23 g/L | Creatinine ([3]; 09 Oct. 2004): 118 µM | Amylase ([3]; 09 Oct. 2004): 114.0 | Chlorine ([3]; 09 Oct. 2004): 114.20 | Indirect bilirubin fraction ([3]; 09 Oct. 2004): 82% | direct (line r9) ([3]; 09 Oct. 2004): 8.0% | indirect (line r11) ([3]; 09 Oct. 2004): 107.2 el | Cholesterol ([3]; 24. Nov. 2004): 5.62 | Total bilirubin ([3]; 24. Nov. 2004): 24.2 | Potassium ([3]; 24. Nov. 2004): 2.32 | ALT ([3]; 24. Nov. 2004): 326 el | AST ([3]; 24. Nov. 2004): 125.8 el | Bilirubin (line r8, above 'direct') ([3]; 24. Nov. 2004): 22.3 | Serum iron ([3]; 24. Nov. 2004): 104.7 | Total protein ([3]; 24. Nov. 2004): 62.26 g/L | Creatinine ([3]; 24. Nov. 2004): 89 µM | Amylase ([3]; 24. Nov. 2004): 140 | Chlorine ([3]; 24. Nov. 2004): 115.3 | Indirect bilirubin fraction ([3]; 24. Nov. 2004): 96% | direct (line r9) ([3]; 24. Nov. 2004): 11.9% | indirect (line r11) ([3]; 24. Nov. 2004): 102 el | Erythrocytes ([3]; 24 Nov. 2004): 3.84 | Hemoglobin ([3]; 24 Nov. 2004): 90 | Leukocytes ([3]; 24 Nov. 2004): 12.0 | Thrombocytes ([3]; 24 Nov. 2004): 210 | Eosinophils ([3]; 24 Nov. 2004): 2 | Nuclear rods ([3]; 24 Nov. 2004): 1% | Monocytes ([3]; 24 Nov. 2004): 12% | Lymphocytes (line r11) ([3]; 24 Nov. 2004): 49 | Nuclear segments ([3]; 24 Nov. 2004): 6 | feeling of pain ([3]; Patient N, 55, ten days after start, i.v. infusions, enemas, oral solution): completely disappeared | body weight ([3]; Patient N, after treatment): Weight regained | blood indices ([3]; Patient N, during treatment): marked step-wise improvement | symptoms complained of ([3]; Patient N, in 2 years): no symptoms | metastases in the liver [3, 5]: no metastases were detected | tumor in the region of the anastomosis [3, 5]: no tumor was detected | dyspnea ([3]; Patient N, third week of treatment): less severe | allergic reactions or other side effects [4]: does not produce any allergic reactions or other side effects
